Results taken from patent US10099993B2, “Metabotropic glutamate receptor positive allosteric modulators (PAMS) and uses thereof” (Sanford-Burnham Medical Research Institute, priority 2014, dated 2018).
Entries after “also recorded” stand apart in the source; their conditions may differ. Where two headings read alike, the source gives them in different places.

Tests used:
[1] = In vivo PK in rats, i.p. administration; details: 10 mg/kg; for Kp at 30 min: rat, brain and plasma, ip
[2] = biological target: mGlu7 (Rattus norvegicus (Rat), UniProt P35400); assay: mGlu7 GIRK thallium flux assay; format: cell-based; details: full L-AP4 concentration-response ± 10 μM compound
[3] = In vivo PK in rats, p.o. administration; set-up: species or system rat; details: 20 mg/kg
[4] = biological target: T1, mGlu3 (Rattus norvegicus (Rat), UniProt P31422); assay: mGlu3 GIRK thallium flux assay;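 further: kinetic fluorescence slope read shortly after thallium plus agonist addition, scaled between vehicle and maximal agonist control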
[5] = biological target: mGlu5 (Rattus norvegicus (Rat), UniProt P31424); assay: mGlu5 calcium assay; format: cell-based; details: full agonist concentration-response ± 10 μM compound
[6] = biological target: T2, mGlu2 (Rattus norvegicus (Rat), UniProt P31421); assay: HEK293A mGlu2 Gα15 calcium assay; format: cell-based; details: presence of an EC20 of glutamate
[7] = biological target: mGlu6 (Rattus norvegicus (Rat), UniProt P35349); assay: mGlu6 GIRK thallium flux assay; format: cell-based; details: full agonist concentration-response ± 10 μM compound
[8] = biological target: mGlu1 (Rattus norvegicus (Rat), UniProt P23385); assay: mGlu1 calcium assay; format: cell-based; details: full agonist concentration-response ± 10 μM compound
[9] = biological target: T2, mGlu2; assay: mGlu2 GIRK thallium flux assay;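 further: Cell-based assay, rate of fluorescence rise right after thallium plus agonist addition read on a kinetic imaging plate reader, normalized to vehicle and maximal agonist control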
[10] = In vivo PK in rats, i.v. administration; set-up: species or system rat; details: 2 mg/kg
[11] = biological target: mGlu8 (Rattus norvegicus (Rat), UniProt P70579); assay: mGlu8 GIRK thallium flux assay; format: cell-based; details: full agonist concentration-response ± 10 μM compound
[12] = biological target: T1, mGlu3; assay: TREx293 mGlu3 Gα15 calcium assay; format: cell-based; details: presence of an EC20 of glutamate, 20 ng/mL Tet for 20 h
Method: In order to generate a tetracycline (Tet)-inducible rat mGlu3 stable cell line to be used for a calcium mobilization assay, TREx293 cells (Invitrogen) were transfected with mouse Gα15-pCMV6 plasmid (Origene) using Fugene6 (Promega). The cells were selected for Gα15 expression with 1 mg/mL G418 in the presence of 10 μg/ml blasticidin to maintain Tet Repressor expression. Two weeks after the selection, polyclonal TREx293 Gα15 cells were obtained. The entire coding sequence of rat mGlu3 was amplified by polymerase chain reaction (PCR) and cloned into the Tet-inducible expression plasmid pcDNA5/TO (Invitrogen). Rat mGlu3-pcDNA5/TO was transfected into TREx293 Gα15 cells and selected for mGlu3 expression with 200 μg/ml hygromycin in the presence of G418 and blasticidin.
For mGlu3 the TREx tetracycline-inducible system (Invitrogen) was utilized. […] In the absence of Tet, no measurable expression of mGlu3 is detected either by Western blot (FIG. 3A) or by functional response to calcium mobilization (FIG. 3B). […] Data were analyzed using nonlinear regression. Data were obtained from three separate experiments performed in triplicate, normalized to the response to 100 μM glutamate in each experiment, and are expressed as the mean±SEM.

[13] = biological target: mGlu4 (Rattus norvegicus (Rat), UniProt P31423); assay: mGlu4 GIRK thallium flux assay; format: cell-based; details: full agonist concentration-response ± 10 μM compound
[14] = tested on: food-maintained responding in rats; details: previously shown (Jin, X. et al. 2010); cited from earlier work
[15] = tested on: cocaine-maintained responding in rats; details: previously shown (Jin, X. et al. 2010); cited from earlier work
[16] = tested on: spinal cord GDNF levels; details: 0.5, 1 or 5 mg/kg i.p., wild-type and mGlu2 knockout mice; cited from earlier work
[17] = tested on: nigrostriatal damage induced by 1-methyl-4-phenyl-1,2,3,6-tetrahydropyridine; details: acute or repeated injections 0.25 or 3 mg/kg, i.p., mice; cited from earlier work
[18] = tested on: SMI-32+ motor neurons; details: mixed cultures of spinal cord cells; cited from earlier work
[19] = tested on: GDNF mRNA and protein levels; details: 0.25-3 mg/kg, i.p.; cited from earlier work
[20] = tested on: R6/2 mice; details: cited from earlier work
[21] = tested on: SOD1G93A mice; details: continuous treatment 1 or 5 mg/kg/day; cited from earlier work
[22] = tested on: 6-OHDA lesioned nigrostriatal tract; details: cited from earlier work
[23] = tested on: reserpine-treated rat; details: cited from earlier work
[24] = tested on: cultured spinal cord astrocytes; details: wild-type and mGlu2 knockout mice, not mGlu3 knockout; cited from earlier work
[25] = tested on: cocaine-maintained responding in rats; assay: Cocaine self-administration experiment; format: in vivo, rat
Method: (§1) Subjects. Male Wistar rats (Charles River Laboratories, Raleigh, N.C.) weighing 300-350 g at the beginning of each experiment were housed in pairs in standard rat Plexiglas cages with food and water available ad libitum, except during food training and the food self-administration experiment (see below). Rats were maintained in a climate-controlled room at 21° C. on a 12 h reverse light/dark cycle and all experiments were conducted during the dark (i.e., active) phase (7:00 h-19:00 h) of the cycle under dim red lighting. All procedures were conducted in accordance with the guidelines from the National Institutes of Health and the Association for the Assessment and Accreditation of Laboratory Animal Care and were approved by the Institutional Animal Care and Use Committee.
Drugs. Cocaine hydrochloride (National Institute on Drug Abuse, Bethesda, Md.) was dissolved in sterile physiological saline and filtered through a 0.22 μm syringe filter (Fisher Scientific, Pittsburgh, Pa.) for sterilization purposes.
Food Training. […]
(§2) Statistical Analyses. […] Significant effects were further analyzed with Tukey post hoc tests. […]

[26] = tested on: food-maintained responding in rats; assay: Food self-administration experiment; format: in vivo, rat; details: rats, 0, 10, 20, 40 mg/kg i.p., 60 min pretreatment
Method: as §1
Food Training. Details regarding the experimental procedures have been described previously.^37 All rats were placed under food restriction (20 g food/day) and trained during daily 1 hr sessions to lever press for 45 mg food pellets (Research Diets, New Brunswick, N.J.) under a fixed ratio 1 reinforcement schedule with a 1 s time-out period (FR1 TO1s). Successful responses were followed by illumination of a cue light for the duration of the time-out period, when lever presses had no consequence. […]
as §2

[27] = compound concentration-response in presence and absence of EC20 glutamate
[28] = full agonist concentration-response ± 10 μM compound

T2 sequence (P31421 19-872): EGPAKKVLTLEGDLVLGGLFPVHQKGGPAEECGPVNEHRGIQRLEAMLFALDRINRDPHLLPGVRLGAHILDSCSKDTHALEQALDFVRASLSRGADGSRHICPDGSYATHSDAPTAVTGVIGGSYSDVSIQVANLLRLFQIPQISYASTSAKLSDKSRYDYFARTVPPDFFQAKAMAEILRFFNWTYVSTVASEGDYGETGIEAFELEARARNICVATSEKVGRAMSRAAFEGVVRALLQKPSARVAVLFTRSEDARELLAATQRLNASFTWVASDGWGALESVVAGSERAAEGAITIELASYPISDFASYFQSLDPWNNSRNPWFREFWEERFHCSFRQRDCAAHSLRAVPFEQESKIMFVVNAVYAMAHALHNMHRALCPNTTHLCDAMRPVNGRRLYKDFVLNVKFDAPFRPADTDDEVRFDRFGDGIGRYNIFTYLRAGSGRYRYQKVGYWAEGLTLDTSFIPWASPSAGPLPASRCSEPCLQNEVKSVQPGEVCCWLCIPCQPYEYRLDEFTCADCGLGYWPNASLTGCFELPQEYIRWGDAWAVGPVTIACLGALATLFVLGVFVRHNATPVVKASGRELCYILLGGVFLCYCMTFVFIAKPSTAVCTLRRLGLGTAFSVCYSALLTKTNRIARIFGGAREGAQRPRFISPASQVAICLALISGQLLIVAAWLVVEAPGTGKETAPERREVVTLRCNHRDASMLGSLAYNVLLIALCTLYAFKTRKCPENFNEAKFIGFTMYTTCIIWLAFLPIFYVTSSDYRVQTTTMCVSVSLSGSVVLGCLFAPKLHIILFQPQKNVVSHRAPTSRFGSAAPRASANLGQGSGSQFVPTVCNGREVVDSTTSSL
T1 sequence (P31422 23-879): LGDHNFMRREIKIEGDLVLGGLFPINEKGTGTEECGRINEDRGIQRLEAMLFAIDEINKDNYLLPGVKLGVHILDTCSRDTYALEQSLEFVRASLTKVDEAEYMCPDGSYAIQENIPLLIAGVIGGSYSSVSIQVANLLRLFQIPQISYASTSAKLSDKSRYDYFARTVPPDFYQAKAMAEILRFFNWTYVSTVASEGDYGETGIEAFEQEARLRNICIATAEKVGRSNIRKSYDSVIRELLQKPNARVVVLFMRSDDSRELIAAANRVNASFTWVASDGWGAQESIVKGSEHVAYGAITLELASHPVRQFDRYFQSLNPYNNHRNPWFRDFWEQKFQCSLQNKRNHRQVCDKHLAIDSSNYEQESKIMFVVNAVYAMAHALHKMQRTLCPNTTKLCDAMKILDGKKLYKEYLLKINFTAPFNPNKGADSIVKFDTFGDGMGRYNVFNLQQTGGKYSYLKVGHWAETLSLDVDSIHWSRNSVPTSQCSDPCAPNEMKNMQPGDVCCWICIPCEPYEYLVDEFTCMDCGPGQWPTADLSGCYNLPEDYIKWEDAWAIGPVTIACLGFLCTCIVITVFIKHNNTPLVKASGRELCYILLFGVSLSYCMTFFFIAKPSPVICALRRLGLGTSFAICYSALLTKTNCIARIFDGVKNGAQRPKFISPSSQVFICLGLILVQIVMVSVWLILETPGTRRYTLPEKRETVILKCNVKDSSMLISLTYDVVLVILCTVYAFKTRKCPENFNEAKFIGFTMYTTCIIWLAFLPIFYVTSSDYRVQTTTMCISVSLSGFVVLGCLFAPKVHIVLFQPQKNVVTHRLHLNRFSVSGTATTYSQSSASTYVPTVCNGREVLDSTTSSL
Chain of mGlu4 (P31423 33-912): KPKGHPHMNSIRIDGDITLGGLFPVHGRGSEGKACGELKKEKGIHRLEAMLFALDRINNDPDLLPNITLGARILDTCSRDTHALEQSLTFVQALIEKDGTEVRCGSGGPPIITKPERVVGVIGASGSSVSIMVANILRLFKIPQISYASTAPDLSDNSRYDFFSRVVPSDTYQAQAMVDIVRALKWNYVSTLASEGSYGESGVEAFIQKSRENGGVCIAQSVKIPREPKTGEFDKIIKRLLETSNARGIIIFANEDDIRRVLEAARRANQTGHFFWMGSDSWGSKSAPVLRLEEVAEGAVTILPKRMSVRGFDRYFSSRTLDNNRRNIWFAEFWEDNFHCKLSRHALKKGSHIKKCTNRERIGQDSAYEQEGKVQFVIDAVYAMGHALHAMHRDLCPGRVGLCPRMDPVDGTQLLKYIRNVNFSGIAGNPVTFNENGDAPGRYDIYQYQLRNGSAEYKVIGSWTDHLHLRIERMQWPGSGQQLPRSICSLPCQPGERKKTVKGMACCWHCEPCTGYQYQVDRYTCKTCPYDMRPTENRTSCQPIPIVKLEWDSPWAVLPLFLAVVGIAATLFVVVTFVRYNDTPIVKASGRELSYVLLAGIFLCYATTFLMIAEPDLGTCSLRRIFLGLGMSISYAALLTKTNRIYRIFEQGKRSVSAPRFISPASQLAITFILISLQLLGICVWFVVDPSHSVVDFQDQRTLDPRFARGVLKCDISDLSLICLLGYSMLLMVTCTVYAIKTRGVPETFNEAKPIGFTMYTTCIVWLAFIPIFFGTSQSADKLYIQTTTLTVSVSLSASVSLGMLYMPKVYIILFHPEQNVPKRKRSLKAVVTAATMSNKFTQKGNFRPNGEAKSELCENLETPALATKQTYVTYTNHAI
Chain of mGlu1 (P23385 19-1199): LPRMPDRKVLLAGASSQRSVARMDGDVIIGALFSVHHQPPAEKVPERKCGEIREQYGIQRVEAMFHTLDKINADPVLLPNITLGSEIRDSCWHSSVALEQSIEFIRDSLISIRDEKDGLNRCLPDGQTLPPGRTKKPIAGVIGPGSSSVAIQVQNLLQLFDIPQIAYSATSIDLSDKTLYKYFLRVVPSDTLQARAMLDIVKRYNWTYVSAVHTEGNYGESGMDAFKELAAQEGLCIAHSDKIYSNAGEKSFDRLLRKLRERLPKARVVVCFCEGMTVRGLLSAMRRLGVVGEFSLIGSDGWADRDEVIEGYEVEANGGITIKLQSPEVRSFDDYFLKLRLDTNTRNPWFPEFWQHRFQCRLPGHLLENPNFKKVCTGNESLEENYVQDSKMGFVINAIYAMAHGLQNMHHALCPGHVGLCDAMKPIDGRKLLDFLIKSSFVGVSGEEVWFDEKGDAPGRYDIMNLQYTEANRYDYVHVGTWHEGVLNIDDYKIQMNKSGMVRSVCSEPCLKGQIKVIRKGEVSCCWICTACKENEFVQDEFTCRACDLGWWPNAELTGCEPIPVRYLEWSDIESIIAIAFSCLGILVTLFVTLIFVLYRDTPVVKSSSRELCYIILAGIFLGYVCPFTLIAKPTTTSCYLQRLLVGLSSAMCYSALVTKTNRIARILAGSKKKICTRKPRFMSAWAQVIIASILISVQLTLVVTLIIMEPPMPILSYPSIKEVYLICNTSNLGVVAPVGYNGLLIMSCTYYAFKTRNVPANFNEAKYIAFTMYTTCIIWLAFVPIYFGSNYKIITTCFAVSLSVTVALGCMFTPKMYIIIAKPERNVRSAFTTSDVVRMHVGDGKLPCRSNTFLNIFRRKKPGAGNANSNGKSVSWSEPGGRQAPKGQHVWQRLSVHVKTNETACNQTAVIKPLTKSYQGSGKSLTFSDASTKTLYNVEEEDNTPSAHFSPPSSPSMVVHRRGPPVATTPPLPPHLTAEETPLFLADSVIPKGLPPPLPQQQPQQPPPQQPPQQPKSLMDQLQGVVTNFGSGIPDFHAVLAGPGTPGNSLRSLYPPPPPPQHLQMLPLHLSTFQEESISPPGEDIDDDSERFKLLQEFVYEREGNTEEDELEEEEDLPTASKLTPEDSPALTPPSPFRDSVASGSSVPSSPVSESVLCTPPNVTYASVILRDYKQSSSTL
Chain of mGlu5 (P31424 21-1203): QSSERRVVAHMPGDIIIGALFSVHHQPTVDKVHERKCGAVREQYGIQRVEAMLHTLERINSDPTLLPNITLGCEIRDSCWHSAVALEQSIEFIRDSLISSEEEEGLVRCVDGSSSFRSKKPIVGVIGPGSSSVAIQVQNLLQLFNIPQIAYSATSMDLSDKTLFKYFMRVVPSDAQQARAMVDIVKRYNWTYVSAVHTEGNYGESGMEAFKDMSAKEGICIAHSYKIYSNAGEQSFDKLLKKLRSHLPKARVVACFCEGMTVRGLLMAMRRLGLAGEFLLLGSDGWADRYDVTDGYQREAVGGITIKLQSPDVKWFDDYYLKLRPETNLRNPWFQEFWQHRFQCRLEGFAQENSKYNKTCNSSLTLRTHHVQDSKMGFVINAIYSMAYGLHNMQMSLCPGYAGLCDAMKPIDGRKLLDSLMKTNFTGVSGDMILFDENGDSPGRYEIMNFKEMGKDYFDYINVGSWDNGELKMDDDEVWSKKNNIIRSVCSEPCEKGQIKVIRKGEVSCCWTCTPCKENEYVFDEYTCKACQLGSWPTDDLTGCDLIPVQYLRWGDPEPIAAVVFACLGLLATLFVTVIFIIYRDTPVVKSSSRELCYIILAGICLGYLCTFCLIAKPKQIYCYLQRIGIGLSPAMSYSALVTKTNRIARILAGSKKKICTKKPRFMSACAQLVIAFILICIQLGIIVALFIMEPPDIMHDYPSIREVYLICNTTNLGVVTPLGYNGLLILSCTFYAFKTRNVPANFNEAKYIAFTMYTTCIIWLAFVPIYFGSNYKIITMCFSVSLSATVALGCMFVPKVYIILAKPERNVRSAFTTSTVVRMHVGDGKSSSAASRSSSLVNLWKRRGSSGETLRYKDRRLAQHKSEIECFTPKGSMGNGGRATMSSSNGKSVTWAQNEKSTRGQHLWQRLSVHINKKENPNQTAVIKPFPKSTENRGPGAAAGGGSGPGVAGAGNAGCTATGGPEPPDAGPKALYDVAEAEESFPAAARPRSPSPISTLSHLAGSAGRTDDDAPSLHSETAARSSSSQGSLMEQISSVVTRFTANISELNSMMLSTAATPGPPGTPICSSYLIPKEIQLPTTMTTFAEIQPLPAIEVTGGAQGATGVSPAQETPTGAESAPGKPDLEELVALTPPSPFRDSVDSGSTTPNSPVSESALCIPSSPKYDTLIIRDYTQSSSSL

COc1cc(C(=O)O)ccc1OCCCCOc1ccc(C(=O)CC(C)C)c(O)c1C [Compound 44, 4-{4-[3-Hydroxy-2-methyl-4-(3-methylbutanoyl)phenoxy]butoxy}-3-methoxybenzoic acid]
Kp at 30 min [1]: 0.03 ± 0.01 | Brain, maximum concentration ([1]; rats, i.p., Tmax 30 min): 0.23 ± 0.10 µM | Plasma, maximum concentration ([1]; rats, i.p., Tmax 30 min): 10.57 ± 2.52 µM | General activity at mGlu7 [2]: inactive^b | AUC(0→t) [3]: 1274.6 ± 246.3 (μmol/L) min | F, oral bioavailability [3]: 41.9% | Plasma ([3]; harvested at or near the Tmax): 16.38 ± 1.1 µM | Kp ([3]; rat, brain and plasma, po, read-out: Brain:Plasma ratio): 0.05 ± 0.01 | Tmax ([3]; rat, plasma, po): 1.5 h | Cmax ([3]; rat, po, plasma): 2.75 ± 0.47 µM | activity toward mGlu3 in GIRK thallium-flux assay [4, 27]: PAM activity | General activity at mGlu3 [4, 28]: PAM | Emin, minimal response of the concentration-response of agonist ([4]; mGlu3, 10 μM compound): Emin = 4% | General activity at mGlu5 [5]: inactive^b | activity in HEK293A mGlu2 Gα15 calcium assay [6]: behaves as a PAM; also recorded: PAM activity | General activity at mGlu6 [7]: inactive^b | General activity at mGlu1 [8]: inactive^b | intrinsic agonist activity towards mGlu2 (Agonist Mode) ([9]; absence of an EC20 concentration of agonist): intrinsic agonist activity | activity toward mGlu2 in GIRK thallium-flux assay [9, 27]: Ago-PAM activity | General activity at mGlu2 [9, 28]: Ago-PAM | Emin, minimal response of the concentration-response of agonist ([9]; mGlu2, 10 μM compound): Emin = 90% | AUC(0→t) [10]: 304.6 ± 25.8 (μmol/L)*min | Cmax ([10]; rat, iv, plasma): 6.43 ± 0.39 µM | Vd ([10]; rat, plasma, iv, read-out: Vdss): 0.55 ± 0.04 L/kg | General activity at mGlu8 [11]: inactive^b | activity in TREx293 mGlu3 Gα15 calcium assay [12]: demonstrates mGlu3 PAM activity | General activity at mGlu4 [13]: inactive^b

N[C@@]1(C(=O)O)CO[C@H]2[C@H](C(=O)O)[C@H]21 [LY379268]
food-maintained responding [14]: decrease both cocaine- and food-maintained responding | cocaine-maintained responding [15]: decrease both cocaine- and food-maintained responding | spinal cord GDNF levels [16]: enhanced spinal cord GDNF levels | protection against MPTP-induced nigrostriatal damage [17]: highly protective against nigrostriatal damage | protection of SMI-32+ motor neurons against excitotoxic death [18]: protected | GDNF mRNA and protein levels in the mouse brain [19]: increased | striatal neuron loss ([20]; R6/2 mice, 20 mg/kg s.c. daily, at 10 weeks): rescue of a 15-20% striatal neuron loss | phenotype in R6/2 mice ([20]; daily s.c. MTD 20 mg/kg beginning at 4 weeks): dramatically improves the phenotype | neurological disability in SOD1G93A mice [21]: beneficial effect on neurological disability | protection against nigral infusion of 6-OHDA ([22]; 10 mg/kg/day ip for 7 days): provided some protection against nigral infusion of 6-OHDA | protection against striatal infusion of 6-OHDA ([22]; 10 mg/kg/day ip for 21 days): significant protection in the striatum | rotational behaviour 1 month after unilateral 6-OHDA lesioning ([22]; systemic 0.1, 1, 10 mg/kg ip): failed to effect rotational behaviour | locomotor activity in reserpine-treated rat ([23]; intracerebroventricular 1, 5, 10, 20 nmol/2 μl): dose-dependent increase in locomotor activity | reserpine-induced akinesia ([23]; systemic 0.1, 1, 10 mg/kg ip): did not reverse reserpine-induced akinesia | GDNF levels in cultured spinal cord astrocytes [24]: enhanced GDNF levels

Cc1c(OCCCCOc2ccc(C(=O)CC(C)(C)C)c(O)c2C)cccc1C(=O)O [compound 74, 3-(4-(4-(3,3-Dimethylbutanoyl)-3-hydroxy-2-methylphenoxy)butoxy)-2-methylbenzoic acid]
cocaine-maintained responding ([25]; rats, 0, 10, 20, 40 mg/kg i.p., 60 min pretreatment): dose-dependently decreased; also recorded: decreasing cocaine-maintained responding | cocaine-maintained responding compared with food-maintained responding ([25]; rats, highest dose tested 40 mg/kg i.p., p<0.05): decreased to a greater extent than food-maintained responding; also recorded: cocaine-maintained responding was significantly lower than food-maintained responding | Kp at 30 min [1]: 0.03 ± 0.01 | food-maintained responding [26]: dose-dependently decreased
